Paper PMC10830309, “Inhibition of Pancreatic Lipase by Flavonoid Derivatives: In Vitro and In Silico Investigations” (Advances in Pharmacological and Pharmaceutical Sciences, 2024)
Where two headings read alike, the source gives them in different places.

Key:
[1] = molecular target: T1, Porcine pancreatic lipase, type II (Sus scrofa, UniProt P00591); assay: Enzymatic inhibition kinetic analysis (Michealis–Menten and Lineweaver–Burk plots); type: biochemical; conditions: for Mode of enzyme inhibition: Michealis–Menten and Lineweaver–Burk plots; for Vmax in the presence of inhibitor: p-NPP 12.5-200 μM, from Michealis–Menten plots
T1 construct: purchased Merck Millipore / Sigma-Aldrich L-3126
T1 sequence (P00591 1-450): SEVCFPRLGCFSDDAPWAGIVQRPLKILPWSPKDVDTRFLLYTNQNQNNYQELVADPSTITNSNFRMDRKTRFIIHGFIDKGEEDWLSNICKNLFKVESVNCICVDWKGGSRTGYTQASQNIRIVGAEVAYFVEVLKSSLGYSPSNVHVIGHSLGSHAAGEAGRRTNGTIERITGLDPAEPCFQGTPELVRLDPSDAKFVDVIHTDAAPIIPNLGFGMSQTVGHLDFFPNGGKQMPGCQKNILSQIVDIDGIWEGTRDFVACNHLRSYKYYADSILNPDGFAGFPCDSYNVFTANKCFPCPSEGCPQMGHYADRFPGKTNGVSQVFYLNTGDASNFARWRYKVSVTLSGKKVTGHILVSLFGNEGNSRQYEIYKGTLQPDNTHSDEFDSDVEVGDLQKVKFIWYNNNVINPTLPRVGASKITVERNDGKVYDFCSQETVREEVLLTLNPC
Procedure: Ten semisynthetic flavonoid derivatives, 2 flavanones and 8 flavones (Figure 1), reported in the previous works were used in this study.
The substrate p-NPP was examined at five distinct concentrations ranging from 12.5 μM to 200 μM. The flavonoid derivative was assessed for its lipase inhibition capacity over time at concentrations of 15 μM and 30 μM. Simultaneously, a negative control sample without the inhibitor was utilized for comparison. […] Inhibition constants (Ki) and maximum velocity (Vmax) were derived from the Michealis–Menten plots, and the mode of enzyme inhibition was elucidated through the Lineweaver–Burk plots. All parameters and graphical representations were calculated and generated using GraphPad Prism 8.4.3 software.

[2] = molecular target: T1, Porcine pancreatic lipase, type II; assay: Pancreatic lipase inhibition assay (spectrophotometric, p-NPP substrate); type: biochemical
Procedure: Following the experimental conditions described in the previous study [28], the assay was performed as follows: each sample solution, composed of 50 mM Tris-HCl buffer at pH 8.0, tested compound, and 10 mg/ml pancreatic lipase enzyme, was sequentially added. The resulting mixture was thoroughly mixed and incubated for 10 minutes at 37°C. Subsequently, the p-NPP substrate solution was added and mixed well. The mixture was then further incubated for 7 minutes at 37°C. The absorbance of the solution was measured at 405 nm. For the control solution, the same procedure was followed, replacing the tested compound with 10% DMSO. The blank solution was prepared with no enzyme added.
The percentage of pancreatic lipase inhibition (I%) was calculated using the following equation:(1) I%=∆A0−∆A/A0×100.
Here, ∆A0 represents the absorbance difference between the control and the blank, ∆A represents the absorbance difference between the sample and the blank, and A0 represents the absorbance of the control.
A linear regression equation was constructed to establish the correlation between the logarithm of the concentration (µM) of the tested substances and the percentage of pancreatic lipase inhibition. From this equation, the IC50 value, which indicates the concentration of the compound required for 50% inhibition, was determined.

[3] = design: method as in PMID 11261530; conditions: dietary contexts, clinical use; cited from earlier work
[4] = p-NPP substrate, 50 mM Tris-HCl pH 8.0, 37°C, absorbance 405 nm, read-out: IC50 for pancreatic lipase

IC50 [2, 4] | Structure (SMILES) | IC50 [2] | other results
17.7 ± 1.43 µM | COc1cc(O)c2c(c1)OC(c1ccc(O)cc1)CC2=O (stereo not shown) [F01, 5-hydroxy-2-(4-hydroxyphenyl)-7-methoxychroman-4-one] | – | Mode of enzyme inhibition [1]: competitive; Vmax in the presence of inhibitor [1]: 0.03272 ΔA·min^−1; Ki ([1]; read-out: Inhibition constant (Ki)): 7.16 µM
76.2 ± 3.22 µM | COc1ccc(C2CC(=O)c3c(O)cc(OC)cc3O2)cc1 (stereo not shown) [F02] | – | –
> 500 µM | COc1cc2oc(-c3ccccc3)cc(=O)c2c(O)c1OC [F03] | – | –
– | CCOc1cc2oc(-c3ccccc3)cc(=O)c2c(O)c1OCC [F04] | > 500 µM | –
– | C=CCOc1cc2oc(-c3ccccc3)cc(=O)c2c(O)c1OCC=C [F05] | 341 ± 24.1 µM | –
– | CC(=O)Oc1cc2oc(-c3ccccc3)cc(=O)c2c(OC(C)=O)c1OC(C)=O [F06] | > 500 µM | –
– | CCC(=O)Oc1cc2oc(-c3ccccc3)cc(=O)c2c(OC(=O)CC)c1OC(=O)CC [F07] | > 500 µM | –
– | COc1cc(OC)c2c(=O)cc(-c3ccc(OC)c(OC)c3)oc2c1 [F08] | 270 ± 14.6 µM | –
465 ± 11.8 µM | COc1cc(O)c2c(=O)cc(-c3ccc(OC)c(OC)c3)oc2c1 [F09] | – | –
– | CCOc1cc(O)c2c(=O)cc(-c3ccc(OC)c(OCC)c3)oc2c1 [F10] | > 500 µM | –
– | CCCCCCCCCCC[C@@H](C[C@@H]1OC(=O)[C@H]1CCCCCC)OC(=O)[C@H](CC(C)C)NC=O [Orlistat, reference compound] | – | Reduction of fat absorption [3]: approximately 30%; Mode of enzyme inhibition [1]: competitive; Vmax in the presence of inhibitor [1]: 0.03295 ΔA·min^−1
